Data taken from patent publication US8586611B2 (priority 2005, dated 2013).
Read-outs that look alike come from different tables or passages of the source.

How the values were obtained:
Format in all cases: in vivo
[1] = test system: Pseudoperonospora cubensis; assay: Test F: cucumber downy mildew, DMSO/acetone/water test suspension, spray the day before inoculation (disease rating, 100 = 100% disease control)
From the text: The test compounds were first dissolved in dimethyl sulfoxide (DMSO) in an amount equal to 4% of the final volume and then suspended at the desired concentration (in ppm) in acetone and purified water (30/70 mix by volume). The resulting test suspensions were then used in test F. Spraying a 250 ppm test suspension on the test plants was the equivalent of a rate of 250 g/ha.
The test suspension was sprayed on cucumber seedlings. The following day the seedlings were inoculated with a spore suspension of Pseudoperonospora cubensis (the causal agent of cucumber downy mildew) and incubated in a saturated atmosphere at 20° C. for 24 h, and then moved to a growth chamber at 20° C. for 6 days, after which disease ratings were made.
Results for Tests A-F are given in Table A. In the table, a rating of 100 indicates 100% disease control and a rating of 0 indicates no disease control (relative to the controls). A dash (-) indicates no test results.

Phytophthora infestans [2] = assay: whole plant or invertebrate; settings: for Test C disease rating (100 = 100% disease control, 0 = no disease control): tomato late blight
[3] = test system: Erysiphe graminis f. sp. tritici; assay: Test E: wheat powdery mildew, spray the day before inoculation (disease rating, 100 = 100% disease control)
How it was run: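 Protective test: spores of E. graminis f. sp. tritici dusted on wheat seedlings one day after run-off spraying of test suspension (acetone/water with 250 ppm surfactant; 200 ppm = 500 g/ha). Ratings after 7 days in growth chamber at 20° C, 100 = full control, 0 = none, relative to controls.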

Phytophthora infestans [4] = assay: whole plant or invertebrate; settings: for Test D disease rating (100 = 100% disease control, 0 = no disease control): tomato late blight
Plasmopara viticola = assay: Test B: grape downy mildew, spray 24 h after inoculation (disease rating, 100 = 100% disease control)
How it was run: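 This is a curative spray test, applied 24 h after inoculation. Compounds in 50/50 acetone–water with 250 ppm Trem 014 surfactant were sprayed to run-off on P. viticola-infected seedlings, with 200 ppm equating to 500 g/ha. Plants were kept 5 days in a 20 °C growth chamber, then 24 h humid, and scored 0–100 for disease control relative to controls.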

[5] = DMSO/acetone/water suspension, spray the day before inoculation, compounds without asterisk
[6] = spray the day before inoculation, compounds without asterisk (not 40 or 10 ppm)
[7] = spray 17 h after inoculation, compounds without asterisk (not 40 or 10 ppm)
[8] = spray 24 h after inoculation, compounds without asterisk (not 40 or 10 ppm)
[9] = sprayed the day before inoculation, 7 days at 20° C., unmarked compounds (no asterisk, not 40 or 10 ppm)
[10] = sprayed 17 h after inoculation, unmarked compounds (no asterisk, not 40 or 10 ppm)
[11] = sprayed 24 h after inoculation, unmarked compounds (no asterisk, not 40 or 10 ppm)
[12] = sprayed the day before inoculation, unmarked compounds (no asterisk, not 40 or 10 ppm)

| SMILES | Test E disease rating (100 = 100% disease control, 0 = no disease control) [3, 9] | Test D disease rating (100 = 100% disease control, 0 = no disease control) (Phytophthora infestans [4]; [10]) | Test B disease rating (100 = 100% disease control, 0 = no disease control) (Plasmopara viticola; [11]) | Test C disease rating (100 = 100% disease control, 0 = no disease control) (Phytophthora infestans [2]; [12]) | also measured |
| --- | --- | --- | --- | --- | --- |
| Cc1cc(C(F)(F)F)nn1CC(=O)N1CCC(c2nc(C(=O)N(C)C3CCCc4ccccc43)cs2)CC1 (stereo not shown) [Compound 188, N-methyl-2-[1-[[5-methyl-3-(trifluoromethyl)-1H-pyrazol-1-yl]acetyl]-4-piperidinyl]-N-(1,2,3,4-tetrahydro-1-naphthalenyl)-4-thiazolecarboxamide] | – | – | – | – | pest or weed control at 10 ppm ([1]; Pseudoperonospora cubensis, topical, 168 h, DMSO/acetone/water suspension, spray the day before inoculation, compound marked as tested at 10 ppm, read-out: Test F disease rating (100 = 100% disease control, 0 = no disease control)): 99%; pest or weed control at 10 ppm (Phytophthora infestans [2]; Phytophthora infestans, in Solanum lycopersicum, 144 h, read-out: Test C disease rating (100 = 100% disease control, 0 = no disease control)): 100%; pest or weed control at 10 ppm ([3]; Blumeria graminis, topical, 168 h, spray the day before inoculation, tested at 10 ppm, read-out: Test E disease rating (100 = 100% disease control, 0 = no disease control)): 84%; pest or weed control at 10 ppm (Phytophthora infestans [4]; Phytophthora infestans, in Solanum lycopersicum, topical, 96 h, read-out: Test D disease rating (100 = 100% disease control, 0 = no disease control)): 99%; pest or weed control at 10 ppm (Plasmopara viticola; Plasmopara viticola, 144 h, spray 24 h after inoculation, tested at 10 ppm, read-out: Test B disease rating (100 = 100% disease control, 0 = no disease control)): 99% |
| Cc1ccc(C)c(CC(=O)N2CCN(c3nc(C(=O)N(C)[C@H](C)c4ccccc4)co3)CC2)c1 [compound 50] | – | – | – | – | Test F disease rating (100 = 100% disease control, 0 = no disease control) [1, 5]: 100%; Test C disease rating (100 = 100% disease control, 0 = no disease control) (Phytophthora infestans [2]; [6]): 100%; Test E disease rating (100 = 100% disease control, 0 = no disease control) [3, 6]: 0%; Test D disease rating (100 = 100% disease control, 0 = no disease control) (Phytophthora infestans [4]; [7]): 99%; Test B disease rating (100 = 100% disease control, 0 = no disease control) (Plasmopara viticola; [8]): 55% |
| C[C@H](c1ccccc1)N(C)C(=O)c1coc(N2CCN(C(=O)Cc3cc(C(F)(F)F)ccc3Cl)CC2)n1 [compound 51] | – | – | – | – | Test F disease rating (100 = 100% disease control, 0 = no disease control) [1, 5]: 100%; Test C disease rating (100 = 100% disease control, 0 = no disease control) (Phytophthora infestans [2]; [6]): 100%; Test E disease rating (100 = 100% disease control, 0 = no disease control) [3, 6]: 0%; Test D disease rating (100 = 100% disease control, 0 = no disease control) (Phytophthora infestans [4]; [7]): 96%; Test B disease rating (100 = 100% disease control, 0 = no disease control) (Plasmopara viticola; [8]): 20% |
| Cc1cccc(CC(=O)N2CCN(c3nc(C(=O)N(C)[C@H](C)c4ccccc4)co3)CC2)c1 [compound 52] | – | – | – | – | Test F disease rating (100 = 100% disease control, 0 = no disease control) [1, 5]: 96%; Test C disease rating (100 = 100% disease control, 0 = no disease control) (Phytophthora infestans [2]; [6]): 100%; Test E disease rating (100 = 100% disease control, 0 = no disease control) [3, 6]: 0%; Test D disease rating (100 = 100% disease control, 0 = no disease control) (Phytophthora infestans [4]; [7]): 74%; Test B disease rating (100 = 100% disease control, 0 = no disease control) (Plasmopara viticola; [8]): 20% |
| C[C@H](c1ccccc1)N(C)C(=O)c1coc(N2CCN(C(=O)Cc3cccc(Br)c3)CC2)n1 [compound 54] | – | – | – | – | Test F disease rating (100 = 100% disease control, 0 = no disease control) [1, 5]: 50%; Test C disease rating (100 = 100% disease control, 0 = no disease control) (Phytophthora infestans [2]; [6]): 100%; Test E disease rating (100 = 100% disease control, 0 = no disease control) [3, 6]: 0%; Test D disease rating (100 = 100% disease control, 0 = no disease control) (Phytophthora infestans [4]; [7]): 69%; Test B disease rating (100 = 100% disease control, 0 = no disease control) (Plasmopara viticola; [8]): 11% |
| C[C@H](c1ccccc1)N(C)C(=O)c1coc(N2CCN(C(=O)Cc3cccc(C(F)(F)F)c3)CC2)n1 [compound 55] | – | – | – | – | Test F disease rating (100 = 100% disease control, 0 = no disease control) [1, 5]: 47%; Test C disease rating (100 = 100% disease control, 0 = no disease control) (Phytophthora infestans [2]; [6]): 100%; Test E disease rating (100 = 100% disease control, 0 = no disease control) [3, 6]: 0%; Test D disease rating (100 = 100% disease control, 0 = no disease control) (Phytophthora infestans [4]; [7]): 92%; Test B disease rating (100 = 100% disease control, 0 = no disease control) (Plasmopara viticola; [8]): 7% |
| Cc1ccc(C)c(CC(=O)N2CCC(c3nc(C(=O)N(C)[C@H](C)c4ccccc4F)cs3)CC2)c1 [compound 57] | – | – | – | – | Test F disease rating (100 = 100% disease control, 0 = no disease control) [1, 5]: 99%; Test C disease rating (100 = 100% disease control, 0 = no disease control) (Phytophthora infestans [2]; [6]): 100%; Test E disease rating (100 = 100% disease control, 0 = no disease control) [3, 6]: 50%; Test D disease rating (100 = 100% disease control, 0 = no disease control) (Phytophthora infestans [4]; [7]): 94%; Test B disease rating (100 = 100% disease control, 0 = no disease control) (Plasmopara viticola; [8]): 100% |
| COc1ccc(CCNC(=O)c2csc(C3CCN(C(=O)Cc4cc(C)ccc4C)CC3)n2)cc1OC [compound 288] | 0 | 76 | 73 | – | Test F disease rating (100 = 100% disease control, 0 = no disease control) ([1]; DMSO/acetone/water test suspension, sprayed the day before inoculation, unmarked compounds (no asterisk)): 95 |
| COc1cc2c(cc1OC)CN(C(=O)c1csc(C3CCN(C(=O)Cn4nc(C(F)(F)F)cc4C)CC3)n1)CC2 [compound 297] | 0 | 33 | 39 | 63 | – |
| Cc1cc(C(F)(F)F)nn1CC(=O)N1CCC(c2nc(C(=O)N3Cc4ccccc4C3C)cs2)CC1 (stereo not shown) [compound 298] | – | – | – | – | Test C disease rating (100 = 100% disease control, 0 = no disease control) (Phytophthora infestans [2]; sprayed the day before inoculation, tested at 10 ppm (**)): 80; Test E disease rating (100 = 100% disease control, 0 = no disease control) ([3]; sprayed the day before inoculation, 7 days at 20° C., tested at 10 ppm (**)): 0; Test D disease rating (100 = 100% disease control, 0 = no disease control) (Phytophthora infestans [4]; sprayed 17 h after inoculation, tested at 10 ppm (**)): 0; Test B disease rating (100 = 100% disease control, 0 = no disease control) (Plasmopara viticola; sprayed 24 h after inoculation, tested at 10 ppm (**)): 57 |
| Cc1cc(C(F)(F)F)nn1CC(=O)N1CCC(c2nc(C(=O)N3CCC4CCCCC4C3)cs2)CC1 (stereo not shown) [compound 299] | 0 | 96 | 83 | 99 | – |
| Cc1cc(C(F)(F)F)nn1CC(=O)N1CCC(c2nc(C(=O)N3CCCC4CCCCC43)cs2)CC1 (stereo not shown) [compound 300] | 0 | 58 | 62 | 97 | – |
| Cc1cc(C(F)(F)F)nn1CC(=O)N1CCC(c2nc(C(=O)N3CCCCC3)cs2)CC1 [compound 307] | 0 | 26 | 79 | 100 | – |
| Cc1cc(C(F)(F)F)nn1CC(=O)N1CCC(c2nc(C(=O)N3CCC(C)CC3)cs2)CC1 [compound 308] | 0 | 93 | 98 | 100 | – |
| Cc1cc(C(F)(F)F)nn1CC(=O)N1CCC(c2nc(C(=O)N3CCC(C)(C)CC3)cs2)CC1 [compound 309] | 0 | 83 | 96 | 100 | – |
| Cc1cc(C(F)(F)F)nn1CC(=O)N1CCC(c2nc(C(=O)N3CC=CCC3)cs2)CC1 [compound 310] | 0 | 9 | 47 | 73 | – |
| Cc1cc(C(F)(F)F)nn1CC(=O)N1CCC(c2nc(C(=O)N3CC=C(c4ccccc4)CC3)cs2)CC1 [compound 311] | 28 | 0 | 31 | 83 | – |
| Cc1cc(C(F)(F)F)nn1CC(=O)N1CCC(c2nc(C(=O)N3CCCC(C)C3)cs2)CC1 (stereo not shown) [compound 312] | 0 | 80 | 91 | 100 | – |
| Cc1cc(C(F)(F)F)nn1CC(=O)N1CCC(c2nc(C(=O)N3CCCC(C)(C)C3)cs2)CC1 [compound 313] | 0 | 92 | 98 | 99 | – |
| Cc1cc(C(F)(F)F)nn1CC(=O)N1CCC(c2nc(C(=O)NCCc3ccccc3)cs2)CC1 [compound 314] | 0 | 99 | 98 | 100 | – |
| Cc1cc(C(F)(F)F)nn1CC(=O)N1C2CCC1CC(c1nc(C(=O)N(C)[C@@H]3CCCc4ccccc43)cs1)C2 (stereo partly shown) [compound 316] | 0 | 97 | 97 | 100 | – |
